Assay results: patent publication US20220119354A1, “DIAMINO-SUBSTITUTED PYRIDINES AND PYRIMIDINES AS HERBICIDES” (FMC Corporation, priority 2019, published 2022)

Assays:
Type in all cases: in vivo
kochia (Kochia scoparia) [1] = test: Test A preemergence, kochia; details: 0 to 100 scale
Outline: (§1)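 Post: seedlings 2–10 cm, 1–2 leaves, foliar spray. Pre: soil spray after sowing in loam/sand blend. Both formulated in non-phytotoxic solvent with surfactant; injury scored visually 0–100 after ~10 d.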

[2] = system: wheat (Triticum aestivum); test: Test A postemergence, wheat; details: 0 to 100 scale
Outline: as §1

[3] = system: foxtail, giant (Setaria faberii); test: Test A postemergence, giant foxtail; details: 0 to 100 scale
Outline: as §1

[4] = system: galium (catchweed bedstraw, Galium aparine); test: Test A postemergence, galium; details: 0 to 100 scale
Outline: as §1

[5] = system: blackgrass (Alopecurus myosuroides); test: Test A postemergence, blackgrass; details: 0 to 100 scale
Outline: as §1

[6] = system: barnyardgrass (Echinochloa crus-galli); test: Test A preemergence, barnyardgrass; details: 0 to 100 scale
Outline: as §1

[7] = system: barnyardgrass (Echinochloa crus-galli); test: Test B flooded paddy test, barnyardgrass; details: Flood, 250 g ai/ha, applied to paddy water, 2-leaf stage, visual evaluation after 13 to 15 d
Outline: (§2)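 Each response is a visual 0–100 rating made against untreated controls, where 0 is no effect and 100 is complete control; a dash marks no result. Compound was dosed into 3 cm paddy water over 2-leaf plants, assessed after 13 to 15 d.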

[8] = system: ragweed (common ragweed, Ambrosia elatior); test: Test A preemergence, ragweed; details: 0 to 100 scale
Outline: as §1

[9] = system: sedge, umbrella (small-flower umbrella sedge, Cyperus difformis); test: Test B flooded paddy test, umbrella sedge; details: Flood, 250 g ai/ha, applied to paddy water, 2-leaf stage, visual evaluation after 13 to 15 d
Outline: as §2

[10] = system: ryegrass, Italian (Lolium multiflorum); test: Test A postemergence, Italian ryegrass; details: 0 to 100 scale
Outline: as §1

[11] = system: barnyardgrass (Echinochloa crus-galli); test: Test A postemergence, barnyardgrass; details: 0 to 100 scale
Outline: as §1

[12] = system: pigweed (Amaranthus retroflexus); test: Test A preemergence, pigweed; details: 0 to 100 scale
Outline: as §1

kochia (Kochia scoparia) [13] = test: Test A postemergence, kochia; details: 0 to 100 scale
Outline: as §1

[14] = system: foxtail, giant (Setaria faberii); test: Test A preemergence, giant foxtail; details: 0 to 100 scale
Outline: as §1

[15] = system: ryegrass, Italian (Lolium multiflorum); test: Test A preemergence, Italian ryegrass; details: 0 to 100 scale
Outline: as §1

[16] = system: pigweed (Amaranthus retroflexus); test: Test A postemergence, pigweed; details: 0 to 100 scale
Outline: as §1

[17] = system: ragweed (common ragweed, Ambrosia elatior); test: Test A postemergence, ragweed; details: 0 to 100 scale
Outline: as §1

rice (Oryza sativa) = test: Test B flooded paddy test, rice; details: Flood, 250 g ai/ha, applied to paddy water, 2-leaf stage, visual evaluation after 13 to 15 d
Outline: as §2

[18] = system: ducksalad (Heteranthera limosa); test: Test B flooded paddy test, ducksalad; details: Flood, 250 g ai/ha, applied to paddy water, 2-leaf stage, visual evaluation after 13 to 15 d
Outline: as §2

corn (Zea mays) = test: Test A postemergence, corn; details: 0 to 100 scale
Outline: as §1

Compound | Plant response rating, Kochia (kochia (Kochia scoparia) [1]; 125 g ai/ha) | Plant response rating, Kochia (kochia (Kochia scoparia) [1]; 500 g ai/ha) | Plant response rating, Wheat ([2]; 125 g ai/ha) | Plant response rating, Wheat ([2]; 500 g ai/ha) | Plant response rating, Foxtail, Giant ([3]; 125 g ai/ha) | Plant response rating, Foxtail, Giant ([3]; 500 g ai/ha) | Plant response rating, Galium ([4]; 125 g ai/ha) | Plant response rating, Galium ([4]; 500 g ai/ha) | Plant response rating, Blackgrass ([5]; 125 g ai/ha) | Plant response rating, Blackgrass ([5]; 500 g ai/ha) | Plant response rating, Barnyardgrass ([6]; 125 g ai/ha) | Plant response rating, Barnyardgrass ([6]; 500 g ai/ha) | Plant response rating, Barnyardgrass (0 to 100 scale, 0 is no effect, 100 is complete control) [7] | Plant response rating, Ragweed ([8]; 125 g ai/ha) | Plant response rating, Ragweed ([8]; 500 g ai/ha) | Plant response rating, Sedge, Umbrella (0 to 100 scale, 0 is no effect, 100 is complete control) [9] | Plant response rating, Ryegrass, Italian ([10]; 125 g ai/ha) | Plant response rating, Ryegrass, Italian ([10]; 500 g ai/ha) | Plant response rating, Barnyardgrass ([11]; 125 g ai/ha) | Plant response rating, Barnyardgrass ([11]; 500 g ai/ha) | also measured
CC[C@H](COc1cc(C)cc(C)c1)Nc1ncc(C(F)(F)F)c(N)n1 [Compound 27] | 0 | 40 | 0 | 20 | 0 | 20 | 90 | 90 | 10 | 50 | 10 | 90 | 0 | 70 | 90 | 50 | 0 | 0 | 0 | 20 | Plant response rating, Pigweed ([12]; 125 g ai/ha): 10; Plant response rating, Pigweed ([12]; 500 g ai/ha): 80; Plant response rating, Kochia (kochia (Kochia scoparia) [13]; 125 g ai/ha): 0; Plant response rating, Kochia (kochia (Kochia scoparia) [13]; 500 g ai/ha): 70; Plant response rating, Foxtail, Giant ([14]; 125 g ai/ha): 20; Plant response rating, Foxtail, Giant ([14]; 500 g ai/ha): 90; Plant response rating, Ryegrass, Italian ([15]; 125 g ai/ha): 30; Plant response rating, Ryegrass, Italian ([15]; 500 g ai/ha): 80; Plant response rating, Pigweed ([16]; 125 g ai/ha): 60; Plant response rating, Pigweed ([16]; 500 g ai/ha): 90; Plant response rating, Ragweed ([17]; 125 g ai/ha): 20; Plant response rating, Ragweed ([17]; 500 g ai/ha): 90; Plant response rating, Rice (0 to 100 scale, 0 is no effect, 100 is complete control) (rice (Oryza sativa)): 0; Plant response rating, Ducksalad (0 to 100 scale, 0 is no effect, 100 is complete control) [18]: 0; Plant response rating, Corn (corn (Zea mays); 125 g ai/ha): 0; Plant response rating, Corn (corn (Zea mays); 500 g ai/ha): 20
C[C@@H](Nc1ncc(C(F)(F)F)c(N)n1)c1cc2ccc(Cl)cc2o1 [Compound 29] | 0 | 80 | 0 | 0 | 0 | 50 | 80 | 100 | 0 | 10 | 0 | 90 | 0 | 20 | 80 | 0 | 0 | 10 | 20 | 80 | Plant response rating, Pigweed ([12]; 125 g ai/ha): 90; Plant response rating, Pigweed ([12]; 500 g ai/ha): 100; Plant response rating, Kochia (kochia (Kochia scoparia) [13]; 125 g ai/ha): 50; Plant response rating, Kochia (kochia (Kochia scoparia) [13]; 500 g ai/ha): 90; Plant response rating, Foxtail, Giant ([14]; 125 g ai/ha): 60; Plant response rating, Foxtail, Giant ([14]; 500 g ai/ha): 90; Plant response rating, Ryegrass, Italian ([15]; 125 g ai/ha): 20; Plant response rating, Ryegrass, Italian ([15]; 500 g ai/ha): 70; Plant response rating, Pigweed ([16]; 125 g ai/ha): 100; Plant response rating, Pigweed ([16]; 500 g ai/ha): 100; Plant response rating, Ragweed ([17]; 125 g ai/ha): 20; Plant response rating, Ragweed ([17]; 500 g ai/ha): 90; Plant response rating, Rice (0 to 100 scale, 0 is no effect, 100 is complete control) (rice (Oryza sativa)): 0; Plant response rating, Ducksalad (0 to 100 scale, 0 is no effect, 100 is complete control) [18]: 0; Plant response rating, Corn (corn (Zea mays); 125 g ai/ha): 0; Plant response rating, Corn (corn (Zea mays); 500 g ai/ha): 10
